Read-outs that look alike come from different tables or passages of the source.
How the values were obtained:
[1] = biological target: T1, SF-1 (Homo sapiens, UniProt Q13285); assay: SF1 degradation induction in NCI-H295R SF-1-HiBiT cells (HiBiT DC50); format: cell-based; conditions: 24 hr, concentration that induces 50% degradation of SF-1
T1 construct: NCI-H295R SF-1-HiBiT cells with HiBiT tag knocked in at the endogenous SF1 locus; host or cells: NCI-H295R SF-1-HiBiT (knock-in at endogenous locus)
In short: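 NCI-H295R cells carrying HiBiT-tagged SF-1, plated and grown 24 hr, then exposed to serially diluted compounds for 24 hr at 37° C. Remaining SF-1 read by lytic HiBiT luminescence; degradation rate from treated vs compound-free signal, DC50 as concentration giving 50% degradation.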

[2] = system: NCI-H295R cells; assay: Proliferation inhibitory action on NCI-H295R (CellTiter-Glo, 7 days); format: cell-based, human
In short: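 Compounds serially diluted in DMSO; cells seeded at 2×10^3 cells/well and cultured 7 days at 37° C, 5% CO2. CellTiter-Glo 2.0 luminescence read at day 0 and day 7; proliferation rate derived from compound-addition-day signal, untreated day-7 signal and treated day-7 signal.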

| SMILES | DC50 [1] [nM] | GI50 ([2]; Homo sapiens, NCI-H295R, 168 h) [nM] | GI50 [2] [nM] |
| --- | --- | --- | --- |
| COc1ccc([C@]2(CCN(Cc3ccc(C4=CC[C@H](C(=O)N5CCC(Nc6ccc7c8c6CCCn8c(=O)n7C6CCC(=O)NC6=O)CC5)CC4)c(F)c3)CC(C)(C)C(F)(F)F)CCOC(C)(C)C2)cc1 (single isomer, unassigned) [CH1, (3S) or (3R)-{7-[(1-{[(4R)-2′-Fluoro-4′-{[{2-[(4R)-4-(4-methoxyphenyl)-2,2-dimethyltetrahydro-2H-pyran-4-yl]ethyl}(3,3,3-trifluoro-2,2-dimethylpropyl)amino]methyl}-2,3,4,5-tetrahydro[biphenyl]-4-yl]carbonyl}piperidin-4-yl)amino]-2-oxo-5,6-dihydro-4H-imidazo[4,5,1-ij]quinolin-1(2H)-yl}piperidine-2,6-dione] | 2.8 | – | 25 |
| COc1ccc([C@]2(CCN(Cc3ccc(OC4CC5(CCN(CC(=O)N6Cc7ccc8c(c7C6)n(C)c(=O)n8C6CCC(=O)NC6=O)CC5)C4)cc3)CC(C)(C)C(F)(F)F)CCOC(C)(C)C2)cc1 (stereo partly drawn) [Example AL4, 3-[7-{[2-(4-{[{2-[(4R)-4-(4-Methoxyphenyl)-2,2-dimethyltetrahydro-2H-pyran-4-yl]ethyl}(3,3,3-trifluoro-2,2-dimethylpropyl)amino]methyl}phenoxy)-7-azaspiro[3.5]nonan-7-yl]acetyl}-1-methyl-2-oxo-1,6,7,8-tetrahydroimidazo[4,5-e]isoindole-3(2H)-yl]piperidine-2,6-dione] | 4.5 | 83 | – |
| COc1ccc([C@]2(CCN(CC(C)(C)C(F)(F)F)C[C@H]3CC[C@H](c4ccc(NC(=O)C5CC(Nc6ccc7c(c6)n(C)c(=O)n7C6CCC(=O)NC6=O)C5)cc4)CC3)CCOC(C)(C)C2)cc1 (stereo partly drawn) [BD6, 3-{[1-(2,6-Dioxopiperidin-3-yl)-3-methyl-2-oxo-2,3-dihydro-1H-benzimidazol-5-yl]amino)-N-[4-(trans-4-{[{2-[(4R)-4-(4-methoxyphenyl)-2,2-dimethyltetrahydro-2H-pyran-4-yl]ethyl}(3,3,3-trifluoro-2,2-dimethylpropyl)amino]methyl}cyclohexyl)phenyl]cyclobutanecarbox amide] | 3 | 57 | – |
| COc1ccc([C@]2(CCN(Cc3ccc(C4=CC[C@H](C(=O)N5CCC(Nc6ccc7c(c6)C(=O)N(C6CCC(=O)NC6=O)C7)CC5)CC4)cc3)CC(C)(C)C(F)(F)F)CCOC(C)(C)C2)cc1 (stereo partly drawn) [BS3, 3-{6-[(1-{[(4R)-4′-{[{2-[(4R)-4-(4-Methoxyphenyl)-2,2-dimethyltetrahydro-2H-pyran-4-yl]ethyl)(3,3,3-trifluoro-2,2-dimethylpropyl)amino]methyl}-2,3,4,5-tetrahydro[biphenyl]-4-yl]carbonyl}piperidin-4-yl)amino]-1-oxo-1,3-dihydro-2H-isoindol-2-yl}piperidine-2,6-dione] | 14 | 70 | – |
| COc1ccc([C@]2(CCN(Cc3ccc(C4=CC[C@H](CN5CCN(C(=O)c6ccc7c(c6)n(C)c(=O)n7[C@@H]6CCC(=O)NC6=O)CC5)CC4)cc3)CC(C)(C)C(F)(F)F)CCOC(C)(C)C2)cc1 [AO7, (3R)-3-{5-[(4-{[(4R)-4′-{[{2-[(4R)-4-(4-Methoxyphenyl)-2,2-dimethyltetrahydro-2H-pyran-4-yl]ethyl}(3,3,3-trifluoro-2,2-dimethylpropyl)amino]methyl}-2,3,4,5-tetrahydro[biphenyl]-4-yl]methyl}piperazin-1-yl)carbonyl]-3-methyl-2-oxo-2,3-dihydro-1H-benzimidazol-1-yl}piperidine-2,6-dione] | 5.4 | 39 | – |
| COc1ccc([C@]2(CCN(Cc3ccc(C4=CC[C@@H](C(=O)N5CCC(Nc6ccc7c8c6OCCn8c(=O)n7C6CCC(=O)NC6=O)CC5)CC4)c(F)c3)CC(C)(C)C(F)(F)F)CCOC(C)(C)C2)cc1 (stereo partly drawn) [BN2, 3-{7-[(1-{[(4S)-2′-Fluoro-4′-{[{2-[(4R)-4-(4-methoxyphenyl)-2,2-dimethyltetrahydro-2H-pyran-4-yl]ethyl}(3,3,3-trifluoro-2,2-dimethylpropyl)amino]methyl}-2,3,4,5-tetrahydro[biphenyl]-4-yl]carbonyl}piperidin-4-yl)amino]-2-oxo-4,5-dihydroimidazo[1,5,4-de][1,4]benzoxazin-1(2H)-yl}piperidine-2,6-dione] | 2.3 | 31 | – |
| COc1ccc([C@]2(CCN(Cc3ccc(OC4CC5(CCN(CC(=O)Nc6ccc7c(c6)C(=O)N(C6CCC(=O)NC6=O)C7=O)CC5)C4)cc3)CC(C)(C)C(F)(F)F)CCOC(C)(C)C2)cc1 (stereo partly drawn) [AQ1, N-[2-(2,6-Dioxopiperidin-3-yl)-1,3-dioxo-2,3-dihydro-1H-isoindol-5-yl]-2-[2-(4-{[{2-[(4R)-4-(4-methoxyphenyl)-2,2-dimethyltetrahydro-2H-pyran-4-yl]ethyl}(3,3,3-trifluoro-2,2-dimethylpropyl)amino]methyl}phenoxy)-7-azaspiro[3.5]nonan-7-yl]acetamide] | 56 | 286 | – |

Now from value to compound, other results behind:

| DC50 [1] [nM] | GI50 ([2]; Homo sapiens, NCI-H295R, 168 h) [nM] | SMILES | GI50 [2] [nM] |
| --- | --- | --- | --- |
| 4 | 27 | COc1ccc([C@]2(CCN(Cc3ccc(C4=CC[C@@H](CN5CCN(C(=O)c6ccc7c8c6NCCn8c(=O)n7C6CCC(=O)NC6=O)CC5)CC4)cc3)CC(C)(C)C(F)(F)F)CCOC(C)(C)C2)cc1 (stereo partly drawn) [BZ7, 3-{7-[(4-{[(4S)-4′-{[{2-[(4R)-4-(4-Methoxyphenyl)-2,2-dimethyltetrahydro-2H-pyran-4-yl]ethyl}(3,3,3-trifluoro-2,2-dimethylpropyl)amino]methyl)-2,3,4,5-tetrahydro[biphenyl]-4-yl]methyl}piperazin-1-yl)carbonyl]-2-oxo-5,6-dihydro-4H-imidazo[1,5,4-de]quinoxalin-1(2H)-yl}piperidine-2,6-dione] | – |
| 18 | 64 | COc1ccc([C@]2(CCN(Cc3ccc(C4=CC[C@H](CN5CCN(C(=O)c6ccc7c8c6OCCn8c(=O)n7C6CCC(=O)NC6=O)CC5)CC4)cc3)CC(C)(C)C(F)(F)F)CCOC(C)(C)C2)cc1 (stereo partly drawn) [BU6, 3-{7-[(4-{[(4R)-4′-{[{2-[(4R)-4-(4-Methoxyphenyl)-2,2-dimethyltetrahydro-2H-pyran-4-yl]ethyl}(3,3,3-trifluoro-2,2-dimethylpropyl)amino]methyl}-2,3,4,5-tetrahydro[biphenyl]-4-yl]methyl}piperazin-1-yl)carbonyl]-2-oxo-4,5-dihydroimidazo[1,5,4-de][1,4]benzoxazin-1(2H)-yl}piperidine-2,6-dione] | – |
| 5.1 | 84 | COc1ccc([C@]2(CCN(Cc3ccc(C4=CC[C@H](CN5CCN(C(=O)c6ccc7c8c6NCCn8c(=O)n7[C@@H]6CCC(=O)NC6=O)CC5)CC4)cc3)CC(C)(C)C(F)(F)F)CCOC(C)(C)C2)cc1 [CF1, (3R)-3-{7-[(4-{[(4R)-4′-{[{2-[(4R)-4-(4-Methoxyphenyl)-2,2-dimethyltetrahydro-2H-pyran-4-yl]ethyl)(3,3,3-trifluoro-2,2-dimethylpropyl)amino]methyl}-2,3,4,5-tetrahydro[biphenyl]-4-yl]methyl}piperazin-1-yl)carbonyl]-2-oxo-5,6-dihydro-4H-imidazo[1,5,4-de]quinoxalin-1(2H)-yl}piperidine-2,6-dione] | – |
